In BigSolDB 2.1:

Work on `O=c1cc(CO)occ1O` yielded a solubility (mole fraction) (in 1,4-dioxane, 288.15 K) of 0.00698, a solubility (mole fraction) (in 1,4-dioxane, 293.15 K) of 0.0086 and a solubility (mole fraction) (in 1,4-dioxane, 298.15 K) of 0.0103. It also gave a solubility (mole fraction) (in 1,4-dioxane, 303.15 K) of 0.0121, a solubility (mole fraction) (in 1,4-dioxane, 308.15 K) of 0.0153 and a solubility (mole fraction) (in 1,4-dioxane, 313.15 K) of 0.018. It also gave a solubility (mole fraction) (in 1,4-dioxane, 318.15 K) of 0.0209, a solubility (mole fraction) (in 2-ethoxyethanol, 278.15 K) of 0.0134 and a solubility (mole fraction) (in 2-ethoxyethanol, 283.15 K) of 0.015. For the same compound, the solubility (mole fraction) (in 2-ethoxyethanol, 288.15 K) was 0.0177, the solubility (mole fraction) (in 2-ethoxyethanol, 293.15 K) was 0.0204 and the solubility (mole fraction) (in 2-ethoxyethanol, 298.15 K) was 0.0233. The solubility (mole fraction) (in 2-ethoxyethanol, 303.15 K) was 0.0261, the solubility (mole fraction) (in 2-ethoxyethanol, 308.15 K) was 0.03 and the solubility (mole fraction) (in 2-ethoxyethanol, 313.15 K) was 0.034. For the same compound, the solubility (mole fraction) (in 2-ethoxyethanol, 318.15 K) was 0.0381, the solubility (mole fraction) (in 2-ethoxyethanol, 323.15 K) was 0.0435 and the solubility (mole fraction) (in 2-methoxyethanol, 278.15 K) was 0.0181. For the same compound, the solubility (mole fraction) (in 2-methoxyethanol, 283.15 K) was 0.0214, the solubility (mole fraction) (in 2-methoxyethanol, 288.15 K) was 0.0252 and the solubility (mole fraction) (in 2-methoxyethanol, 293.15 K) was 0.0287. It also gave a solubility (mole fraction) (in 2-methoxyethanol, 298.15 K) of 0.0331, a solubility (mole fraction) (in 2-methoxyethanol, 303.15 K) of 0.0377 and a solubility (mole fraction) (in 2-methoxyethanol, 308.15 K) of 0.0431. It also gave a solubility (mole fraction) (in 2-methoxyethanol, 313.15 K) of 0.0491, a solubility (mole fraction) (in 2-methoxyethanol, 318.15 K) of 0.0559 and a solubility (mole fraction) (in 2-methoxyethanol, 323.15 K) of 0.0625. The solubility (mole fraction) (in DMAc, 278.15 K) was 0.148, the solubility (mole fraction) (in DMAc, 283.15 K) was 0.157 and the solubility (mole fraction) (in DMAc, 288.15 K) was 0.165. It also gave a solubility (mole fraction) (in DMAc, 293.15 K) of 0.174, a solubility (mole fraction) (in DMAc, 298.15 K) of 0.184 and a solubility (mole fraction) (in DMAc, 303.15 K) of 0.194. It also gave a solubility (mole fraction) (in DMAc, 308.15 K) of 0.205, a solubility (mole fraction) (in DMAc, 313.15 K) of 0.216 and a solubility (mole fraction) (in DMAc, 318.15 K) of 0.228. It also gave a solubility (mole fraction) (in DMAc, 323.15 K) of 0.24, a solubility (mole fraction) (in DMF, 278.15 K) of 0.0977 and a solubility (mole fraction) (in DMF, 283.15 K) of 0.106. It also gave a solubility (mole fraction) (in DMF, 288.15 K) of 0.114, a solubility (mole fraction) (in DMF, 293.15 K) of 0.123 and a solubility (mole fraction) (in DMF, 298.15 K) of 0.135. For the same compound, the solubility (mole fraction) (in DMF, 303.15 K) was 0.147, the solubility (mole fraction) (in DMF, 308.15 K) was 0.157 and the solubility (mole fraction) (in DMF, 313.15 K) was 0.168. For the same compound, the solubility (mole fraction) (in DMF, 318.15 K) was 0.18, the solubility (mole fraction) (in DMF, 323.15 K) was 0.193 and the solubility (mole fraction) (in DMSO, 293.15 K) was 0.238. The solubility (mole fraction) (in DMSO, 298.15 K) was 0.249, the solubility (mole fraction) (in DMSO, 303.15 K) was 0.259 and the solubility (mole fraction) (in DMSO, 308.15 K) was 0.268. The solubility (mole fraction) (in DMSO, 313.15 K) was 0.28, the solubility (mole fraction) (in DMSO, 318.15 K) was 0.292 and the solubility (mole fraction) (in DMSO, 323.15 K) was 0.303. The solubility (mole fraction) (in DMSO, 328.15 K) was 0.316, the solubility (mole fraction) (in DMSO, 333.15 K) was 0.331 and the solubility (mole fraction) (in NMP, 278.15 K) was 0.17. The solubility (mole fraction) (in NMP, 283.15 K) was 0.179, the solubility (mole fraction) (in NMP, 288.15 K) was 0.185 and the solubility (mole fraction) (in NMP, 293.15 K) was 0.193. It also gave a solubility (mole fraction) (in NMP, 298.15 K) of 0.201, a solubility (mole fraction) (in NMP, 303.15 K) of 0.208 and a solubility (mole fraction) (in NMP, 308.15 K) of 0.216. The solubility (mole fraction) (in NMP, 313.15 K) was 0.223, the solubility (mole fraction) (in NMP, 318.15 K) was 0.232 and the solubility (mole fraction) (in NMP, 323.15 K) was 0.241. The solubility (mole fraction) (in acetic acid, 293.15 K) was 0.0139, the solubility (mole fraction) (in acetic acid, 298.15 K) was 0.0169 and the solubility (mole fraction) (in acetic acid, 303.15 K) was 0.0204. For the same compound, the solubility (mole fraction) (in acetic acid, 308.15 K) was 0.0246, the solubility (mole fraction) (in acetic acid, 313.15 K) was 0.0293 and the solubility (mole fraction) (in acetic acid, 318.15 K) was 0.0353. For the same compound, the solubility (mole fraction) (in acetic acid, 323.15 K) was 0.0425, the solubility (mole fraction) (in acetic acid, 328.15 K) was 0.0511 and the solubility (mole fraction) (in acetic acid, 333.15 K) was 0.0613. The solubility (mole fraction) (in acetone, 278.15 K) was 0.00224, the solubility (mole fraction) (in acetone, 283.15 K) was 0.00276 and the solubility (mole fraction) (in acetone, 288.15 K) was 0.00324. For the same compound, the solubility (mole fraction) (in acetone, 293.15 K) was 0.00383, the solubility (mole fraction) (in acetone, 298.15 K) was 0.00455 and the solubility (mole fraction) (in acetone, 303.15 K) was 0.00556. For the same compound, the solubility (mole fraction) (in acetone, 308.15 K) was 0.00686, the solubility (mole fraction) (in acetone, 313.15 K) was 0.008 and the solubility (mole fraction) (in acetone, 318.15 K) was 0.00932. It also gave a solubility (mole fraction) (in acetone, 323.15 K) of 0.0106, a solubility (mole fraction) (in ethanol, 278.15 K) of 0.0031 and a solubility (mole fraction) (in ethanol, 283.15 K) of 0.00374. For the same compound, the solubility (mole fraction) (in ethanol, 288.15 K) was 0.00459, the solubility (mole fraction) (in ethanol, 293.15 K) was 0.00595 and the solubility (mole fraction) (in ethanol, 298.15 K) was 0.00739. For the same compound, the solubility (mole fraction) (in ethanol, 303.15 K) was 0.00893, the solubility (mole fraction) (in ethanol, 308.15 K) was 0.0108 and the solubility (mole fraction) (in ethanol, 313.15 K) was 0.013. For the same compound, the solubility (mole fraction) (in ethanol, 318.15 K) was 0.0158, the solubility (mole fraction) (in ethanol, 323.15 K) was 0.0191 and the solubility (mole fraction) (in ethyl acetate, 278.15 K) was 0.000804. The solubility (mole fraction) (in ethyl acetate, 283.15 K) was 0.00105, the solubility (mole fraction) (in ethyl acetate, 288.15 K) was 0.00137 and the solubility (mole fraction) (in ethyl acetate, 293.15 K) was 0.00169. For the same compound, the solubility (mole fraction) (in ethyl acetate, 298.15 K) was 0.00201, the solubility (mole fraction) (in ethyl acetate, 303.15 K) was 0.00242 and the solubility (mole fraction) (in ethyl acetate, 308.15 K) was 0.00296. It also gave a solubility (mole fraction) (in ethyl acetate, 313.15 K) of 0.00338, a solubility (mole fraction) (in ethyl acetate, 318.15 K) of 0.00411 and a solubility (mole fraction) (in ethyl acetate, 323.15 K) of 0.00497. It also gave a solubility (mole fraction) (in methanol, 278.15 K) of 0.00492, a solubility (mole fraction) (in methanol, 283.15 K) of 0.00606 and a solubility (mole fraction) (in methanol, 288.15 K) of 0.00737. It also gave a solubility (mole fraction) (in methanol, 293.15 K) of 0.00891, a solubility (mole fraction) (in methanol, 298.15 K) of 0.011 and a solubility (mole fraction) (in methanol, 303.15 K) of 0.0132. It also gave a solubility (mole fraction) (in methanol, 308.15 K) of 0.0156, a solubility (mole fraction) (in methanol, 313.15 K) of 0.0189 and a solubility (mole fraction) (in methanol, 318.15 K) of 0.0223. It also gave a solubility (mole fraction) (in methanol, 323.15 K) of 0.0267, a solubility (mole fraction) (in n-propanol, 278.15 K) of 0.00225 and a solubility (mole fraction) (in n-propanol, 283.15 K) of 0.00281. For the same compound, the solubility (mole fraction) (in n-propanol, 288.15 K) was 0.00339, the solubility (mole fraction) (in n-propanol, 293.15 K) was 0.00423 and the solubility (mole fraction) (in n-propanol, 298.15 K) was 0.00524. It also gave a solubility (mole fraction) (in n-propanol, 303.15 K) of 0.00646, a solubility (mole fraction) (in n-propanol, 308.15 K) of 0.00782 and a solubility (mole fraction) (in n-propanol, 313.15 K) of 0.00964. The solubility (mole fraction) (in n-propanol, 318.15 K) was 0.0116, the solubility (mole fraction) (in n-propanol, 323.15 K) was 0.0139 and the solubility (mole fraction) (in water, 278.15 K) was 0.00216. For the same compound, the solubility (mole fraction) (in water, 283.15 K) was 0.00276, the solubility (mole fraction) (in water, 288.15 K) was 0.00353 and the solubility (mole fraction) (in water, 293.15 K) was 0.0043. The solubility (mole fraction) (in water, 298.15 K) was 0.00553, the solubility (mole fraction) (in water, 303.15 K) was 0.00679 and the solubility (mole fraction) (in water, 308.15 K) was 0.00873. For the same compound, the solubility (mole fraction) (in water, 313.15 K) was 0.0113, the solubility (mole fraction) (in water, 318.15 K) was 0.0143 and the solubility (mole fraction) (in water, 323.15 K) was 0.0185.
